From article PMC11593696, “Discovery of Potent Benzothiazole Inhibitors of Oxidoreductase NQO2, a Target for Inflammation and Cancer” (International Journal of Molecular Sciences, 2024) come the findings set out here.

Like-named read-outs stand apart in the source and are kept apart here.

In data set [1] the target is T1, recombinant human NQO2 (Homo sapiens, UniProt P16083).
T1 sequence (P16083 1-231): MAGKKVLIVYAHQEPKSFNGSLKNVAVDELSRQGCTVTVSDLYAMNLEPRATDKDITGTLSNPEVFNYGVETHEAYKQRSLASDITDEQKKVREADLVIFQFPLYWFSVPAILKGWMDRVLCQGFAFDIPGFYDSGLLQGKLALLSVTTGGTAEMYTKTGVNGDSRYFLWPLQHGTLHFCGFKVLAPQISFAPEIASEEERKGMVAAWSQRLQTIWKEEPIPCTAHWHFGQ
Description: NQO2 enzyme inhibition assay (DCPIP substrate, NRH or EPR co-substrate). Format: biochemical. The settings on record: for reduction in potency relative to compound 40: removal of the 4-OMe or the 5-OMe from 40. On the procedure: In this assay, dichlorophenolindophenol (DCPIP) was used as a substrate for NQO2. NRH (SI or EP0152R) was used as the co-substrate for the enzyme.
The NQO2 enzyme assay was carried out using a […] GO spectrophotometer by measuring the absorbance of DCPIP at 600 nm. NRH [31] or EPR were used as co-substrates. The experiment was performed using a 96-well plate with a […] final volume using phosphate buffer (50 mM, pH 7.4). The final concentrations were DCPIP 40 µM and NRH or EPR 200 µM. The final enzyme concentration was 100 ng. The assay was performed at 37 °C and initiated through the addition of NQO2. The initial rates of the enzyme reactions were calculated from the curve by taking the initial slopes of the reactions using the formula (ΔAb/ΔTime). The assay of inhibitors was carried out using the same assay conditions. […] Each experiment was performed in triplicate. Rates were converted to the percentage of enzyme activity, and IC50 values were calculated using GraphPad Prism 7.03 software using the non-linear regression function. IC50 values were determined as a 50% decrease in NQO2 activity.

The mark [2] stands for this setting: inhibition of NQO2, DCPIP 40 µM, NRH or EPR 200 µM, phosphate buffer pH 7.4, 37 °C, triplicate, read-out: IC50 (µM) ± SD.
Where [3] appears, read: DCPIP substrate, NRH co-substrate, read-out: IC50 for inhibition of NQO2.

In the case of `COc1ccc(-c2nc3ccc(C#N)cc3s2)cc1OC` [Compound 36, 2-(3,4-Dimethoxyphenyl)benzo[d]thiazole-6-carbonitrile], in data set [1] (setting [2]), the concentration for half-maximal inhibition (IC50) was over 100 µM.
Molecule `COc1cc(OC)cc(C(=O)Nc2ccc3nc(-c4cc(OC)c(OC)c(OC)c4)sc3c2)c1` [Compound 51, 3,5-Dimethoxy-N-(2-(3,4,5-trimethoxyphenyl)benzo[d]thiazol-6-yl)benzamide] showed a melting point of 185 to 187 °C. Moreover, the IC50 in data set [1] (setting [2]) came out at 3.11 ± 0.03 µM.
In turn, `COc1ccc(OC)c(-c2nc3ccc(F)cc3s2)c1` [Compound 29, 2-(2,5-Dimethoxyphenyl)-6-fluorobenzo[d]thiazole] showed a melting point of 105 to 107 °C. Moreover, the 50% inhibitory concentration (IC50) in data set [1] (setting [3]) came out at 2.06 µM. The IC50 in data set [1] (setting [2]) is 2.06 ± 0.01 µM.
`Fc1cccc(-c2nc3ccc(F)cc3s2)c1` [Compound 55, 6-Fluoro-2-(3-fluorophenyl)benzo[d]thiazole] had a melting point of 111 to 112 °C. For the same molecule, the IC50 in data set [1] (setting [3]) was found to be 52.6 µM. For the same molecule, the IC50 in data set [1] (setting [2]) is 52.55 ± 0.06 µM.
Regarding `COc1ccc(-c2nc3ccc(I)cc3s2)cc1OC` [Compound 38, 2-(3,4-Dimethoxyphenyl)-6-iodobenzo[d]thiazole], the IC50 in data set [1] (setting [3]) was 22.9 µM; in data set [1] (setting [2]), 22.94 ± 0.02 µM.
The corresponding values for `COc1ccc(OC)c(-c2nc3ccc(OC)cc3s2)c1` [Compound 24, 2-(2,5-Dimethoxyphenyl)-6-methoxybenzo[d]thiazole] are 0.846 µM and 0.846 ± 0.02 µM.
Consider `Oc1cc(O)cc(-c2nc3ccc(O)cc3s2)c1` [Compound 15, 6-Hydroxy-2-(3,5-dihydroxyphenyl)benzo[d]thiazole], for which the half-inhibitory concentration (IC50) in data set [1] (setting [3]) worked out at 0.025 µM; in data set [1] (setting [2]), 0.025 ± 0.003 µM.
The molecule `COc1ccc(-c2nc3ccc(Br)cc3s2)cc1OC` [Compound 33, 6-Bromo-2-(3,4-dimethoxyphenyl)benzo[d]thiazole] registered a melting point of 165 to 168 °C. Further, the IC50 in data set [1] (setting [3]) stood at 9.09 µM. Also, the half-maximal inhibitory concentration (IC50) in data set [1] (setting [2]) amounted to 9.09 ± 0.04 µM.
For `COc1cc(-c2nc3ccc(Cl)cc3s2)cc(OC)c1OC` [Compound 43, 6-Chloro-2-(3,4,5-trimethoxyphenyl)benzo[d]thiazole], the melting point was in the range of 173 to 174 °C. In addition, the IC50 in data set [1] (setting [2]) was 0.773 ± 0.016 µM.
With `COc1cc(OC)cc(-c2nc3ccc(F)cc3s2)c1` [Compound 8, 2-(3,5-Dimethoxyphenyl)-6-fluorobenzo[d]thiazole], the melting point lay within 138 to 140 °C. The IC50 in data set [1] (setting [2]) was over 100 µM.
`COc1cc(OC)cc(-c2nc3ccc(OC)cc3s2)c1` [Compound 3, 2-(3,5-Dimethoxyphenyl)-6-methoxybenzo[d]thiazole] came in with a melting point of 121 to 123 °C. For the same molecule, the IC50 in data set [1] (setting [3]) came to 0.108 µM. The IC50 in data set [1] (setting [2]) stood at 0.108 ± 0.012 µM. In addition, the “reduction in potency relative to compound 40” value in data set [1] stood at 2 fold.
Molecule `COc1cc(OC)cc(-c2nc3ccc(Br)cc3s2)c1` [Compound 4, 6-Bromo-2-(3,5-dimethoxyphenyl)benzo[d]thiazole] came in with a melting point of 164 to 165 °C. Also, in data set [1] (setting [2]), the 50% inhibitory concentration (IC50) is over 100 µM.
On to `COc1ccc(OC)c(-c2nc3ccc(C#N)cc3s2)c1` [Compound 28, 2-(2,5-Dimethoxyphenyl)benzo[d]thiazole-6-carbonitrile], for which the melting point was in the range of 182 to 184 °C. Moreover, in data set [1] (setting [2]), the IC50 was over 100 µM.
With `COc1ccc2nc(-c3ccc(OC)c(OC)c3)sc2c1` [Compound 32, 2-(3,4-Dimethoxyphenyl)-6-methoxybenzo[d]thiazole], the values for the IC50 in data set [1] (setting [3]) and in data set [1] (setting [2]) were 1.27 µM and 1.27 ± 0.03 µM, respectively. Also, in data set [1], the “reduction in potency relative to compound 40” value amounted to 20 fold.
`COc1ccc(OC)c(-c2nc3ccc(Br)cc3s2)c1` [Compound 25, 6-Bromo-2-(2,5-dimethoxyphenyl)benzo[d]thiazole] returned a melting point of 135 to 137 °C. Also, the half-inhibitory concentration (IC50) in data set [1] (setting [2]) was 6.71 ± 0.02 µM.
As for `COc1ccc(-c2nc3ccc(F)cc3s2)cc1OC` [Compound 37, 2-(3,4-Dimethoxyphenyl)-6-fluorobenzo[d]thiazole], the IC50 was 5.93 µM in data set [1] (setting [3]) and 5.93 ± 0.05 µM in data set [1] (setting [2]).
On to `COc1ccc2nc(-c3cc(F)cc(F)c3)sc2c1` [Compound 57, 2-(3,5-Difluorophenyl)-6-methoxybenzo[d]thiazole], for which the IC50 in data set [1] (setting [3]) was found to be 12 µM; in data set [1] (setting [2]), 11.78 ± 0.02 µM.
Consider `COc1cc(-c2nc3ccc(N)cc3s2)cc(OC)c1OC` [Compound 48, 2-(3,4,5-Trimethoxyphenyl)benzo[d]thiazol-6-amine], for which the melting point was in the range of 212 to 215 °C. The IC50 in data set [1] (setting [3]) was determined as 0.079 µM. The half-inhibitory concentration (IC50) in data set [1] (setting [2]) came to 0.079 ± 0.017 µM.
The matching figures for `COc1cc(-c2nc3ccc(C#N)cc3s2)cc(OC)c1OC` [Compound 44, 2-(3,4,5-Trimethoxyphenyl)benzo[d]thiazole-6-carbonitrile]: 228 to 230 °C, 13.3 µM and 13.28 ± 0.02 µM.
Regarding `COc1cc(-c2nc3ccc(Br)cc3s2)cc(OC)c1OC` [Compound 41, 6-Bromo-2-(3,4,5-trimethoxyphenyl)benzo[d]thiazole], the melting point fell in the range of 171 to 172 °C. In addition, the IC50 in data set [1] (setting [2]) was 0.193 ± 0.003 µM.
In turn, `COc1cccc(-c2nc3ccc(F)cc3s2)c1` [Compound 53, 6-Fluoro-2-(3-methoxyphenyl)benzo[d]thiazole] gave a melting point of 103 to 105 °C. The concentration for half-maximal inhibition (IC50) in data set [1] (setting [3]) was found to be 0.908 µM. In addition, in data set [1] (setting [2]), the IC50 is 0.908 ± 0.02 µM.
`COc1ccc(-c2nc3ccc(F)cc3s2)cc1` [Compound 54, 6-Fluoro-2-(4-methoxyphenyl)benzo[d]thiazole] returned a melting point of 127 to 130 °C. Besides, the 50% inhibitory concentration (IC50) in data set [1] (setting [3]) is over 100 µM. In addition, the 50% inhibitory concentration (IC50) in data set [1] (setting [2]) is over 100 µM.
The molecule `COc1cc(-c2nc3ccc(NC(C)=O)cc3s2)cc(OC)c1OC` [Compound 49, N-(2-(3,4,5-Trimethoxyphenyl)benzo[d]thiazol-6-yl)acetamide] yielded a melting point of 208 to 209 °C. Moreover, the concentration for half-maximal inhibition (IC50) in data set [1] (setting [3]) is 0.031 µM. Moreover, the half-inhibitory concentration (IC50) in data set [1] (setting [2]) was found to be 0.031 ± 0.008 µM.
For `COc1ccc(-c2nc3ccc([N+](=O)[O-])cc3s2)cc1OC` [Compound 39, 2-(3,4-Dimethoxyphenyl)-6-nitrobenzo[d]thiazole], the melting point was in the range of 221 to 222 °C. Moreover, the half-maximal inhibitory concentration (IC50) in data set [1] (setting [2]) came to 63.28 ± 0.02 µM.
On to `COc1ccc(OC)c(-c2nc3ccc(C(F)(F)F)cc3s2)c1` [Compound 26, 2-(2,5-Dimethoxyphenyl)-6-(trifluoromethyl)benzo[d]thiazole], for which the values for the 50% inhibitory concentration (IC50) in data set [1] (setting [3]) and in data set [1] (setting [2]) were 2.77 µM and 2.77 ± 0.01 µM, respectively.
The matching figures for `COc1cc(OC)cc(-c2nc3ccc(N)cc3s2)c1` [Compound 11, 2-(3,5-Dimethoxyphenyl)benzo[d]thiazol-6-amine]: 0.863 µM and 0.863 ± 0.07 µM.
Consider `COc1ccc(OC)c(-c2nc3ccc(Cl)cc3s2)c1` [Compound 27, 6-Chloro-2-(2,5-dimethoxyphenyl)benzo[d]thiazole], for which the melting point is 220 to 222 °C. The 50% inhibitory concentration (IC50) in data set [1] (setting [3]) is 1.18 µM. Also, the IC50 in data set [1] (setting [2]) is 1.18 ± 0.002 µM.
For `Fc1ccc(-c2nc3ccc(F)cc3s2)cc1` [Compound 56, 6-Fluoro-2-(4-fluorophenyl)benzo[d]thiazole], the half-inhibitory concentration (IC50) in data set [1] (setting [3]) and in data set [1] (setting [2]) was over 100 µM each time.
For the molecule `COc1cc(-c2nc3ccc(I)cc3s2)cc(OC)c1OC` [Compound 46, 6-Iodo-2-(3,4,5-trimethoxyphenyl)benzo[d]thiazole], the IC50 in data set [1] (setting [2]) was 0.106 ± 0.004 µM.
Regarding `COc1ccc(-c2nc3ccc(Cl)cc3s2)cc1OC` [Compound 35, 6-Chloro-2-(3,4-dimethoxyphenyl)benzo[d]thiazole], the figures for the IC50 in data set [1] (setting [3]) and in data set [1] (setting [2]) were 91.7 µM and 91.67 ± 0.08 µM, respectively.
Turning to `COc1cc(-c2nc3ccc(C(F)(F)F)cc3s2)cc(OC)c1OC` [Compound 42, 6-(Trifluoromethyl)-2-(3,4,5-trimethoxyphenyl)benzo[d]thiazole], the IC50 in data set [1] (setting [3]) came to 18.4 µM; in data set [1] (setting [2]) it was 18.36 ± 0.03 µM.
The matching figures for `COc1ccc2nc(-c3cc(OC)c(OC)c(OC)c3)sc2c1` [Compound 40, 6-Methoxy-2-(3,4,5-trimethoxyphenyl)benzo[d]thiazole]: 0.051 µM and 0.051 ± 0.02 µM.
Turning to `COc1ccc(-c2nc3ccc(C(F)(F)F)cc3s2)c(OC)c1` [Compound 18, 2-(2,4-Dimethoxyphenyl)-6-(trifluoromethyl)benzo[d]thiazole], the half-inhibitory concentration (IC50) in data set [1] (setting [2]) stood at 4.52 ± 0.04 µM.
Turning to `COc1cc(OC)cc(-c2nc3ccc(C(F)(F)F)cc3s2)c1` [Compound 5, 2-(3,5-Dimethoxyphenyl)-6-(trifluoromethyl)benzo[d]thiazole], the IC50 in data set [1] (setting [3]) is 0.123 µM; in data set [1] (setting [2]) it was 0.123 ± 0.029 µM.
Turning to `COc1ccc(-c2nc3ccc(C(F)(F)F)cc3s2)cc1OC` [Compound 34, 2-(3,4-Dimethoxyphenyl)-6-(trifluoromethyl)benzo[d]thiazole], the concentration for half-maximal inhibition (IC50) in data set [1] (setting [2]) is over 100 µM.
For the molecule `Fc1cc(F)cc(-c2nc3ccc(F)cc3s2)c1` [Compound 58, 2-(3,5-Difluorophenyl)-6-fluorobenzo[d]thiazole], in data set [1], the “inhibition of NQO2 enzymatic activity, in words” value is reported as “loss of inhibition of NQO2 activity”. For the same molecule, the concentration for half-maximal inhibition (IC50) in data set [1] (setting [2]) is over 100 µM.
